Drawing on a melting point compilation (Tetko et al.), this text covers melting point for 122 compounds.

SMILES strings stand for the structures.

In the case of `CCOC(=O)c1ccc(-c2ccc(C=O)o2)cc1`, the melting point (commonly the temperature of the solid-liquid transition) lay in the range of 110 to 112 °C. `Cc1cc(=O)n2nc(Br)sc2n1` showed a melting point of 167 to 169 °C. For the compound `O=C(CCl)N1CC=C(c2ccccc2)CC1`, the melting point lay in the range of 86 to 88 °C. `NNc1ncnc2c1oc1ccccc12` registered a melting point of 232 to 234 °C. As for `CNC(=O)C1CN(Cc2ccccc2)CCO1` (configuration not stated), the figure is 113 to 115 °C; as for `Cn1c(=O)c2[nH]c(Br)nc2n(C)c1=O`, 299 to 301 °C; as for `O=C(O)c1ccc(F)cc1S`, 171 to 173 °C.

`NC(=O)CCNC(=O)c1ccccc1N` gave a melting point of 197 to 199 °C. As for `O=C(CCl)Nc1cccc(Oc2ccccc2)c1`, the figure is 102 to 104 °C; as for `Cn1cc(C(N)=O)cc1C(=O)O`, 223 to 225 °C; as for `Cc1nc(-c2ccc(Cl)nc2)[nH]c(=O)c1C`, 263 to 265 °C.

`COc1ccc2c(-c3ccccc3)cc(Cl)nc2c1` came in with a melting point of 100 to 102 °C. To `O=c1c([N+](=O)[O-])c(Cl)nc2ccccn12` belongs 212 to 214 °C; to `COC(=O)c1[nH]c(C)cc1N`, 128 to 130 °C; to `O=C(O)C1Cc2ccccc2S1` (configuration not stated), 107 to 109 °C. As for `COc1ccc(C(=O)CCl)c(OC)c1`, the figure is 48 to 50 °C. In turn, `Cc1cc(N2CCCS2(=O)=O)ccc1C(=O)O` displayed a melting point of 249 to 251 °C. For `O=C(O)CCc1ncc(-c2ccc(F)cc2F)o1`, the melting point lay within 169 to 171 °C. In turn, `CC1CC1c1ccc(/C=C/C(=O)O)o1` (configuration not stated) showed a melting point of 73 to 75 °C. As for `O=C(O)c1cnn(-c2ccc(Br)cc2)c1`, the figure is 254 to 256 °C. To `CCCCCC(=O)Nc1ccc(C(=O)CCl)cc1` belongs 179 to 181 °C; to `c1ccc(CNc2nccs2)cc1`, 127 to 129 °C. As for `Nc1ccccc1NC(=O)CC1C=CCC1` (configuration not stated), the figure is 128 to 130 °C; as for `CCOC(=O)c1[nH]c2c(c1C)C(=O)CC(C)(C)C2`, 159 to 163 °C; as for `CC(C)(C)CNc1ccc(C(N)=O)c(Cl)c1`, 138 to 140 °C. With `CC(NS(=O)(=O)c1ccc(N)cc1)C1CC2CCC1C2` (configuration not stated), the melting point was 202 to 204 °C. Turning to `CCCc1cc(Cl)n2ncnc2n1`, the melting point fell in the range of 67 to 69 °C. `O=C(CCCl)NC(=O)NCC(F)(F)F`: the melting point fell in the range of 145 to 147 °C.

`CC1CN(c2ccc(NC(=O)OCC(F)(F)F)cc2F)CC(C)O1` (configuration not stated): the melting point fell in the range of 130 to 132 °C.

`N#CCC(=O)c1ccc(F)cc1`: the melting point lay within 84 to 88 °C. To `Nc1cccc(NS(N)(=O)=O)c1` belongs 75 to 81 °C; to `O=C(O)c1oc2ccccc2c1CSC1=NCCS1`, 190 to 192 °C; to `CN(CCCNC(=O)CCl)S(C)(=O)=O`, 79 to 81 °C.

On to `NNC(=O)Nc1ccc(Cl)cc1Cl`, for which the melting point lay within 153 to 155 °C. The compound `COc1cc(NC(C)=O)ccc1C(C)=O` showed a melting point of 130 to 132 °C.

The compound `O=C(NCCO)c1ccccc1` gave a melting point of 60 to 62 °C. As for `Cc1cc(Br)cn2c(C=O)cnc12`, the figure is 152 to 154 °C; as for `COc1c(Cl)cc(Cl)cc1C=O`, 85 to 87 °C; as for `CC(C)(C)OC(=O)N1CCCC(C(=O)NC2CCCNC2)C1` (configuration not stated), 116 to 118 °C. `CN(C)S(=O)(=O)c1cccc(N)c1` yielded a melting point of 125 to 127 °C. To `O=C(O)Cn1nnc(-c2ccco2)n1` belongs 216 to 218 °C; to `Cc1ccc(C(=O)NN)c(O)c1`, 173 to 175 °C; to `Cc1nn(Cc2cccc(Cl)c2)cc1C(=O)O`, 167 to 169 °C. As for `COc1ccc(-c2nc(CO)no2)cc1`, the figure is 141 to 143 °C. To `CCNc1ncc(C(=O)O)s1` belongs 187 to 189 °C. `O=C(O)c1cc(Cl)cc2cccnc12` showed a melting point of 224 to 226 °C.

The compound `Cn1nnnc1-c1cccc(NC(=O)OCC(F)(F)F)c1` came in with a melting point of 128 to 130 °C. Consider `COC(=O)c1nnc2ccccc2c1Cl`, for which the melting point was 147 to 149 °C. To `O=C(NC1CC1)c1cccc(O)c1` belongs 157 to 159 °C. To `COc1cc(S(N)(=O)=O)ccc1[N+](=O)[O-]` belongs 149 to 151 °C; to `N#CCC(=O)NCc1ccco1`, 93 to 95 °C. In turn, `O=C(O)CNC(=O)c1ccncc1` displayed a melting point of 230 to 232 °C.

The compound `O=C(O)c1cc(-c2ccccc2)nc2cc(Br)ccc12` showed a melting point of 219 to 221 °C. Take `c1ccc2c(c1)nc1n2CCN1`: the melting point was 194 to 206 °C. Turning to `CCOc1ccc(-c2nnc(SC(F)F)n2CCC(=O)O)cc1`, the melting point was 198 to 200 °C.

On to `CC(=O)Nc1c(Cl)cc(Br)c2ccccc12`, for which the melting point lay in the range of 227 to 229 °C. As for `COCCC(NC(C)=O)C(=O)O` (configuration not stated), the melting point fell in the range of 152 to 154 °C. `Cc1nc(-c2cccs2)ccc1C(=O)O` gave a melting point of 191 to 193 °C. In turn, `NC(=O)N1CCN(c2ccccc2F)CC1` returned a melting point of 150 to 152 °C. To `CC(C)(C)C(=O)Nc1ccc(C(=O)CCl)cc1` belongs 132 to 134 °C; to `Cc1cc(CCCC(=O)O)c(C)s1`, 56 to 58 °C; to `Cc1ccc2nc(-c3cccc(C)c3O)[nH]c2c1`, 244 to 246 °C. As for `CCC(C)NC(=O)c1ccc(N)c(C)c1` (configuration not stated), the figure is 123 to 125 °C; as for `Nc1ccccc1NCCCn1ccnc1`, 160 to 162 °C. As for `Nc1cc(F)c(N2CCCC2)c(F)c1`, the figure is 94 to 96 °C.

Compound `CC1Cc2ccccc2N1C(=O)CO` (configuration not stated) had a melting point of 75 to 77 °C.

The compound `CC1CCCC1(N)C(N)=O` (configuration not stated) registered a melting point of 64 to 66 °C. As to `Cc1c(C(=O)O)sc2cccc(F)c12`, the melting point lay within 230 to 232 °C. As for `O=C(COc1ccccc1)Nc1ccc(O)cc1C(=O)O`, the figure is 254 to 256 °C. The compound `CC(C)N(C)S(=O)(=O)c1ccc(C(=O)O)cc1` came in with a melting point of 176 to 178 °C. The compound `NNC(=O)c1ccc(COc2ccccc2)cc1` showed a melting point of 148 to 150 °C.

Take `CNS(=O)(=O)c1csc(C(=O)O)c1`: the melting point fell in the range of 170 to 172 °C. Regarding `CC(N)c1ccc(-c2ccncc2)cc1` (configuration not stated), the melting point fell in the range of 87 to 89 °C. In turn, `CCCCN1Cc2ccc(N)cc2C1` showed a melting point of 62 to 64 °C.

As to `Nc1ccccc1C(=O)Nc1ccc(Cl)cc1`, the melting point lay within 44 to 45 °C. To `OC1CCSc2ccccc21` (configuration not stated) belongs 67 to 69 °C; to `CC(=Cc1ccc(F)cc1)C(=O)O`, 150 to 152 °C; to `Nc1nnc(-c2ccc(Br)cc2)[nH]1`, 214 to 216 °C. To `CC(C)NC(=O)CC1(C(=O)O)CCCC1` belongs 139 to 141 °C; to `ClCc1nnc(-c2cccs2)o1`, 77 to 79 °C. To `O=C(Nc1cn[nH]c1)OCC(F)(F)F` belongs 151 to 153 °C.

In turn, `Cc1cccc(C(=O)Nc2ccccc2C(=O)O)c1` returned a melting point of 182 to 186 °C. `Cc1nc(N)sc1Cc1cccc(Cl)c1` gave a melting point of 74 to 76 °C.

Compound `Cc1[nH]c(=O)sc1C` registered a melting point of 146 to 148 °C. As for `COC(=O)CC(NC(=S)NC12CC3CC(CC(C3)C1)C2)C(=O)OC` (configuration not stated), the figure is 117 to 119 °C; as for `COCCNc1cc2nc[nH]c(=O)c2cc1[N+](=O)[O-]`, 259 to 261 °C; as for `Cc1cc(C)c(C(N)=O)c(S)n1`, 167 to 170 °C.

The compound `c1ccc(COc2ccc3[nH]ncc3c2)cc1` returned a melting point of 175 to 177 °C. As for `CC(C)(C)C(=O)Cn1cc(C(=O)O)nn1`, the figure is 198 to 200 °C; as for `CC(C)=CC(=O)Nc1scc(-c2ccccc2)c1C(=O)O`, 202 to 204 °C; as for `O=C(O)CCn1nnnc1S`, 156 to 158 °C.

For the compound `Cn1cc(C=O)c(-c2ccc([N+](=O)[O-])cc2)n1`, the melting point lay within 175 to 177 °C. The compound `CC(C)OC(=O)c1ccnc(O)c1` had a melting point of 145 to 147 °C. As for `Cc1cnc2c(c1)NC(=O)CO2`, the melting point lay in the range of 259 to 261 °C. As for `COc1ccc(CN)cc1NC(C)=O`, the figure is 115 to 117 °C; as for `Cc1cccc2c(=O)[nH]cnc12`, 255 to 257 °C; as for `NS(=O)(=O)c1cc(C(=O)O)co1`, 176 to 178 °C. Regarding `CC(C)NC(=O)CN1CCCNCC1`, the melting point lay in the range of 43 to 45 °C. In turn, `CCNC(=O)c1cccc(N)c1` displayed a melting point of 69 to 71 °C.

`NC(=O)C1(Br)CCC1` came in with a melting point of 150 to 152 °C.

In turn, `O=C(CCl)Nc1nnc(-c2ccccc2)o1` yielded a melting point of 219 to 221 °C. As for `Cn1cc(Br)c([N+](=O)[O-])n1`, the figure is 157 to 159 °C. `O=C(CN1C(=O)CCC1=O)c1ccccc1F` registered a melting point of 154 to 156 °C.

As for `O=C(O)c1nc(-c2ccccc2)n(-c2ccccc2)n1`, the melting point fell in the range of 177 to 181 °C. For `COc1ccc(S(=O)(=O)CCC(=O)O)cc1OC`, the melting point lay in the range of 139 to 141 °C. As to `O=C(O)c1cc(Cl)n[nH]c1=O`, the melting point was 212 to 214 °C. To `Cc1ccccc1CNc1ccc2[nH]c(=O)[nH]c2c1` belongs 204 to 206 °C; to `Cc1cc(C)c(C#N)c(N2CCCC2)n1`, 54 to 56 °C; to `Cn1nc(Br)c(=O)n(C)c1=O`, 95 to 97 °C. To `Cc1ccc(-c2cnc(CCl)o2)cc1` belongs 58 to 60 °C; to `N#Cc1ccnc(-n2cccn2)c1`, 96 to 98 °C. As for `CC1CCc2c(sc3nc(CCC(=O)O)[nH]c(=O)c23)C1` (configuration not stated), the figure is 259 to 261 °C. The compound `CS(=O)(=O)c1cccc(NC(=O)CCl)c1` registered a melting point of 104 to 106 °C. As to `Cc1cccn2c(=O)cc(Cl)nc12`, the melting point lay in the range of 124 to 126 °C. For `Cc1ccccc1CC(=O)NN`, the melting point lay in the range of 129 to 131 °C.

With `CC(N)c1ccc(OCC(=O)NC2CC2)cc1` (configuration not stated), the melting point lay within 75 to 77 °C.

In the case of `ClCc1nnc(-c2ccco2)o1`, the melting point is 81 to 83 °C. Regarding `COc1ccc(C(=O)O)cc1S(=O)(=O)N1CCCCCC1`, the melting point lay in the range of 190 to 194 °C. As for `CNS(=O)(=O)c1ccc(C)c(C(=O)O)c1`, the figure is 170 to 172 °C; as for `O=C(O)COc1cccc(Oc2ccccn2)c1`, 124 to 126 °C; as for `COC(=O)c1ccc(C(=O)O)s1`, 194 to 196 °C. `CC1c2ccccc2OC1C(=O)O` (configuration not stated) displayed a melting point of 121 to 123 °C.
